In EP0586960B1, “Xanthone derivatives, their preparation and use” (INVERNI DELLA BEFFA S.P.A., priority 1992, dated 1994):
Where two headings read alike, the source gives them in different places.

What was measured:
hen osteoclasts = assay: Bone resorption by hen osteoclast cultures with rat bone particles pre-labelled with tritiated proline; assay type: cell-based; conditions: for inhibition at 10 µg/mL / inhibition at 25 µg/mL: Osteoclast, read-out: Inhibition % vs. controls
Description: The activity of the new xanthones has been evaluated in vitro and in vivo. The effect on the bone resorption has been studied in vitro according to Zambonin-Zallone et al. Anatomy Embriology, 165, 405, 1982). The medullary bone, deriving from tibia and femur of hens fed with hypocalcic diet for 7 days was washed with MEM buffer, modified according to Joklik, at 4°C and filtered through a nylon filter with pore diameters of 112 microns. The obtained cell suspension was centrifuged at 1800 rpm for 5 minutes. The surnatant was discarded and the pellet treated with a 0.2% NaCl solution for 30 seconds to eliminate most of the present red blood cells. After restoration of the physiological osmolarity by means of 1.6% NaCl, the sample was centrifuged at 1800 rpm for 5 min. The obtained pellet, suspended again in the culture medium, was layered on 75% foetal calf serum in Joklik MEM for 45 min, so as to obtain a cell suspension enriched in osteoclasts. The fibroblasts were then filtered off by means of two filtrations on 112 µn nylon filters.
The so obtained cells were cultivated in a nucleotide-free medium, in the presence of 3 µg/ml of cytosine-1-D-β-arabinofuranoside to block the mitosis of proliferating cells. The culture medium contained 100 µg/ml streptomycin, 100 U.I./ml penicillin and 10% fetal calf serum. The cultures were incubated in humid atmosphere saturated with 5% CO₂ at 37°C and washed after 24 and 48 hours to remove non-adhering medullary cells.
The bone resorption was evaluated using the so prepared osteoclasts cultures cultured in the presence of rat bone particles, pre-labelled in vivo with trititated proline. During the resorption process, the collagen was degraded into fragments containing tritiated proline which was released in the culture medium; the resorption was calculated by measuring the radioactivity present in the medium after 24 and 48 hours of treatment.
Simultaneously to each experiment, cell-free samples have also been prepared containing only bone fragments labelled in the culture medium to measure the aspecific release of radioactivity from the bone. This value was subtracted as background from the corresponding experimental value.
The compounds under examination were added to the culture medium at the concentrations of 10 and 25 µg/ml dissolved in DMSO. The inhibiting effect on the bone resorption of osteoclast of compound I (R = iPr, R₁ = OiPr), as an example, is reported on Table 1.
The significance was evaluated by the Student's t test versus the group treated with the solvent alone (control).

[1] = tested on: suckling rats under hypocalcic diet; assay: Antiosteoporotic activity in suckling rats under hypocalcic diet (femur compacta thickness by microradiography); assay type: in vivo, Wistar rats; conditions: 250 mg/kg/os
Description: In vivo, the antiosteoporotic activity of the compound I (R = iPr, R₁ = OiPr) administered by the oral route, was evaluated on suckling rats under hypocalcic diet according to the method, slightly modified, disclosed by Lozupone et al., Bone, 9; 215, 1988). Female Wistar rats were allowed to delivery spontaneously.
The offsprings were pooled, weighed and re-distributed so as to obtain nests similar in weight and number.
The mothers during the suckling period were fed with an hypocalcic diet (Altromin DP 1031) and divided in two groups.
One group was treated orally with compound I (R = iPr, R₁ = OiPr) suspended in Methocel 0.5% at the dose of 250 mg/kg, whereas the second was treated with the vehicle alone (control group). The animals were sacrificed after 10 days from the start of milking.
The femur was taken from each animal and fixed, included in methacrylate and transversally cut. Two sections taken at the distal methaphysis and one from the medial methaphysis were microradiographed so as to measure the thickness of the compacta.

[2] = Acute toxicity in the rat after oral and intraperitoneal administration; design: species or system Sprague-Dawley rats; conditions: in vivo, 14 days observation, read-out: LD₅₀
Description: The acute toxicity of the compound I (R = iPr; R₁ = OiPr) was evaluated in the rat after oral and intraperitoneal administration.
Sprague-Dawley rats of both sexes (5M + 5F) were used for each group. […] The compound has an LD₅₀ > 4000 mg/kg (LD₀) after oral administration and an LD₅₀ > 1000 mg/kg (LD₂₀) by intraperitoneal route.

[3] = change versus control group (Methocel 0.5%)
[4] = change versus control group (Methocel 0.5%); R₁ = OiPr)
[5] = femur, sacrificed after 10 days, n = 3, p < 0.05

## CC(C)Oc1ccc2c(=O)c3ccc(OC(C)C)cc3oc2c1 [I (R=iPr; R₁=OiPr), 3,6-Di(isopropoxy)xanthone]
Hen osteoclasts; Conc. 10 µg/ml, 24h, n = 4
  Bone Res.: 32.1 ± 3.6 µg
Hen osteoclasts; Conc. 10 µg/ml, 48h, n = 4
  Bone Res.: 50.2 ± 6.3 µg
Hen osteoclasts; Conc. 25 µg/ml, 24h, n = 4, p < 0.01
  Bone Res.: 16.0 ± 1.0 µg
Hen osteoclasts; Conc. 25 µg/ml, 48h, n = 4, p < 0.01
  Bone Res.: 21.0 ± 1.0 µg
Hen osteoclasts; Conc. 10 µg/ml, 24h
  inhibition at 10 µg/mL: 27.5%
Hen osteoclasts; Conc. 10 µg/ml, 48h
  inhibition at 10 µg/mL: 30.9%
Hen osteoclasts; Conc. 25 µg/ml, 24h
  inhibition at 25 µg/mL: 63.8%
Hen osteoclasts; Conc. 25 µg/ml, 48h
  inhibition at 25 µg/mL: 71.1%
Hen osteoclasts; at the concentrations of 10 and 25 µg/ml
  activity on bone resorption: dose dependent activity
Hen osteoclasts; both at 24 and at 48 hours, concentration not stated in the sentence (10 and 25 µg/ml tested)
  bone resorption inhibition in comparison to unexposed controls: higher than 60%
[1]; [3]
  Compacta thinkness Diaphysis %: +29%
  Compacta thinkness Methaphysis %: +29%
[1]; [4]
  Compacta thinkness Diaphysis %: 29%
  Compacta thinkness Methaphysis %: 29%
[1]; [5]
  Compacta thinkness Diaphysis mm ± S.D.: 0.71±0.03 mm
  Compacta thinkness Methaphysis mm ± S.D.: 0.40±0.12 mm
[2]; ip, intraperitoneal route, printed with (LD₂₀)
  LD50 at 336 h: > 1000 mg/kg
[2]; oral administration, printed with (LD₀)
  LD50 at 336 h: > 4000 mg/kg
